No end group written: not given here.
Experiments:
[1] = test system: AtproPep1 gene expression; experiment: Hormone treatments of intact plants, RT-PCR of AtproPep1 and paralogs; type: in vivo, Arabidopsis thaliana; conditions: for expression of the AtproPep1 gene in intact plants: sprayed: MeJA 250 μM, ethephon 7 mM, within an hour; for expression of AtproPep1 paralogs after spraying: At5g64905, At5g64900, At5g64890, At5g09980
Procedure: Plant stress and hormone treatments. To examine effects of cold stress, plants were placed in a refrigerated growth chamber set to 2° C. To simulate drought stress conditions, plants grown under standard growth chamber conditions were grown without watering. Methyl jasmonate (Bedoukian Research Inc., Danbury Conn.) was applied as a 625 μM solution in 0.1% Triton X-100 to the upper surface of leaves and the plants were incubated in plexiglass boxes. Methyl salicylate (Sigma-Aldrich, St. Louis Mo.), was applied to leaf surfaces at 2 mM in a 0.1% Triton X-100 solution. Ethephon (Phytotechnology Laboratories, Shawnee Mission Kans.) was sprayed on plants as a 7 mM solution in 0.1% Triton X-100 (Sigma-Aldrich, St. Louis Mo.). ABA effects were analyzed by spraying plants with a 100 μM solution (mixed isomer, Sigma-Aldrich, St. Louis Mo.) in 0.1% Triton X-100 (Denekamp and Smeekens, Plant Physiol. 132, 1415-1423, 2003).
Semi-quantitative RT-PCR analysis of relative gene expression levels. RNA was isolated using Trizol reagent and manufacturer's instructions (Invitrogen. Carlsbad Calif.), and 2 μg of RNA template was reverse transcribed with a RETROscript kit (Ambion, Austin Tex.). PCR reactions were carried out with ExTaq Hot Start polymerase and reagents (Fisher Scientific, Pittsburgh Pa.). The AtproPep1 forward and reverse primers with the respective sequences of 5′ […] 3′ (SEQ ID NO: 59) and 5′ […] 3′ (SEQ ID NO: 60) generated a 310 bp intron-spanning product. Primers to β-tubulin (At5g62690) of 5′ […] 3′ (SEQ ID NO: 73) and 5′ […] 3′ (SEQ ID NO: 74) generated a 681 base pair intron-spanning product. An initial denaturing/polymerase activating step of 5 minutes at 94° C. was followed by 31 repetitions of the following three steps: a thirty second denaturation phase at 94° C., a thirty second annealing period at 55.5° C., and a one minute elongation step at 72° C. The amplification program was terminated with a 10 minute final 72° C. elongation phase.
Expression analysis of AtproPep1 in response to abiotic and biotic cues. As a first step in seeking a possible function for AtproPep1 and its encoded peptide, the basal expression level of the gene was assessed in leaves, stems, roots and flowers of Arabidopsis plants was studied using semi-quantitative RT-PCR analysis of AtproPep1 gene expression in response to treatment of leaves with MeJA, ethephon, MeSA, and AtPep1. The relative abundance of the proAtPep1 transcript was estimated from the expression of the β-tubulin gene as a control. Leaves were wounded by crushing once across the mid-vein with a hemostat. Plants were sprayed with a 250 μM solution of MeJA in 0.1% Triton X-100; with a […] solution of MeSA in 0.1% Triton X-100 or with a 7 mM solution of ethephon in 0.1% Triton X-100. […] Total RNA was extracted and analyzed.

[2] = test system: AtPEPR1 and AtPEPR2 transcripts; experiment: Expression analysis of AtPEPR1 and AtPEPR2 (Northern hybridization, quantitative RT-PCR); type: in vivo, Arabidopsis thaliana; conditions: within 30 min
Procedure: Expression analysis of AtPEPR1 and AtPEPR2. […] In order to elucidate the role of AtPEPR2 in AtPeps signal transduction, the gene expression patterns were analyzed in comparison with AtPEPR1.

[3] = test system: GmPROPEP and soybean defense-related gene expression; experiment: Soybean gene expression by semi-quantitative RT-PCR; type: in vivo
Procedure: Precursor gene expression of soybean homologues of the AtPep peptide, GmPROPEP1, GmPROPEP2 and GmPROPEP3, were analyzed by semi-quantitative RT-PCR. GmPROPEP2 and GmPROPEP3 were expressed in leaves, stems and roots. GmPROPEP1 was expressed mainly in roots, and very weakly in leaves and stems. The transcripts of GmPROPEP1 increased 4-fold 1 hour after supplying MeJA and 3-fold 8 hours after wounding. The transcripts of GmPROPEP2 increased 5-fold 2 hours after supplying MeJA. GmPep1-3 also affected the precursor gene expression. The GmPROPEP1 was induced by infiltration of GmPep1-3 (50 nM), and GmPROPEP2 was induced by GmPep2 (50 nM) and GmPep3 (50 nM) infiltration.
To examine whether GmPep1-3 are involved in defense responses, expression of soybean defense-related genes were analyzed by semi-quantitative RT-PCR after GmPep1-3 infiltration. The transcripts of D6aH/CYP93a1, a biosynthetic enzyme of the soybean phytoalexin glyceollin (Schopfer et al., FEBS Lett. 432: […], 1998), were induced 2 to 3-fold by GmPep1-3 infiltration.

OsPEPR1 = experiment: Medium alkalinization of transgenic tobacco cells expressing OsPEPR1; type: cell-based, rice
Sequence of OsPEPR1 (as listed by the source): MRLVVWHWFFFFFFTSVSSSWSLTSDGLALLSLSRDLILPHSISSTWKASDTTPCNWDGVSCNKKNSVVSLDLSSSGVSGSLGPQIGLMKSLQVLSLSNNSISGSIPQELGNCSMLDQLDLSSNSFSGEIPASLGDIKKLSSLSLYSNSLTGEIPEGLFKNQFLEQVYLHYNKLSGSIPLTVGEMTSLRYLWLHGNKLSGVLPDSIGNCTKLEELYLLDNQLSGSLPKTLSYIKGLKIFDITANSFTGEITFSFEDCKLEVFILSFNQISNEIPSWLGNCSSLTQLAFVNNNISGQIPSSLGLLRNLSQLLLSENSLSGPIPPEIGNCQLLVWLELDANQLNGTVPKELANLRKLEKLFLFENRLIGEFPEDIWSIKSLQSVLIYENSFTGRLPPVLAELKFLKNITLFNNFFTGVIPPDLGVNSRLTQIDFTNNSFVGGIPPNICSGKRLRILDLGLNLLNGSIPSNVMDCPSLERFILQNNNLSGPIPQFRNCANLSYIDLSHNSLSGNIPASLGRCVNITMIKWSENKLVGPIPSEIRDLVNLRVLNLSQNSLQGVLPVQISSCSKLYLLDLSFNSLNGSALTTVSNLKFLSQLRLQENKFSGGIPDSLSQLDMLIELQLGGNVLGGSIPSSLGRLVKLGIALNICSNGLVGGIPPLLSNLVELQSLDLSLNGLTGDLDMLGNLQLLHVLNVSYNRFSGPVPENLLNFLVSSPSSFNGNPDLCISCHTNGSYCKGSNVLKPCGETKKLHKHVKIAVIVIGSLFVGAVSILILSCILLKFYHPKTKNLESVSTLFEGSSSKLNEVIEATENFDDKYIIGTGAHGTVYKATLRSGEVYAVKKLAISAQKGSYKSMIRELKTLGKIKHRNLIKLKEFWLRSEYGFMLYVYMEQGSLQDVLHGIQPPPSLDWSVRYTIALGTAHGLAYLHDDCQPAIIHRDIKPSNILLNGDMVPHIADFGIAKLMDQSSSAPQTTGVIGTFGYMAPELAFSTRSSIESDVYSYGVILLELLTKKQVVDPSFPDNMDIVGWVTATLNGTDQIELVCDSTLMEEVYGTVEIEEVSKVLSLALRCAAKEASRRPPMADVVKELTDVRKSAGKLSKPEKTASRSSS
Source text: (§1) We identified rice homologues of AtPEPR1 in the Rice Annotation Project database (see the website located at www.rapdb.dna.affrc.go.jp). The rice homologues, OsPEPR1 (Os08g0446200) and OsPEPR2 (Os08g0446400), have 60% and 62% amino acid similarities, respectively. The OsPEPR1 has 26 LRRs in the extracellular region, which is the same as AtPEPR1. The OsPEPR2 has a shorter extracellular region with 22 LRRs. Transgenic tobacco cells expressing either OsPEPR1 or OsPEPR2 were created to examine the possibility of receptor binding to monocot peptides. OsPep3a, OsPep3b, OsPep3c, ZmPep1 and ZmPep4a were supplied to suspension cultured transgenic tobacco cells, and medium pH was measured. OsPep3a, OsPep3b, ZmPep1 and ZmPep4a caused medium alkalinization in OsPEPR1 expressing cells with a 1.2 pH unit increase and a half-maximal activity of 0.25 nM.

OsPEPR2 = experiment: Medium alkalinization of transgenic tobacco cells expressing OsPEPR2; type: cell-based, rice
Sequence of OsPEPR2 (as listed by the source): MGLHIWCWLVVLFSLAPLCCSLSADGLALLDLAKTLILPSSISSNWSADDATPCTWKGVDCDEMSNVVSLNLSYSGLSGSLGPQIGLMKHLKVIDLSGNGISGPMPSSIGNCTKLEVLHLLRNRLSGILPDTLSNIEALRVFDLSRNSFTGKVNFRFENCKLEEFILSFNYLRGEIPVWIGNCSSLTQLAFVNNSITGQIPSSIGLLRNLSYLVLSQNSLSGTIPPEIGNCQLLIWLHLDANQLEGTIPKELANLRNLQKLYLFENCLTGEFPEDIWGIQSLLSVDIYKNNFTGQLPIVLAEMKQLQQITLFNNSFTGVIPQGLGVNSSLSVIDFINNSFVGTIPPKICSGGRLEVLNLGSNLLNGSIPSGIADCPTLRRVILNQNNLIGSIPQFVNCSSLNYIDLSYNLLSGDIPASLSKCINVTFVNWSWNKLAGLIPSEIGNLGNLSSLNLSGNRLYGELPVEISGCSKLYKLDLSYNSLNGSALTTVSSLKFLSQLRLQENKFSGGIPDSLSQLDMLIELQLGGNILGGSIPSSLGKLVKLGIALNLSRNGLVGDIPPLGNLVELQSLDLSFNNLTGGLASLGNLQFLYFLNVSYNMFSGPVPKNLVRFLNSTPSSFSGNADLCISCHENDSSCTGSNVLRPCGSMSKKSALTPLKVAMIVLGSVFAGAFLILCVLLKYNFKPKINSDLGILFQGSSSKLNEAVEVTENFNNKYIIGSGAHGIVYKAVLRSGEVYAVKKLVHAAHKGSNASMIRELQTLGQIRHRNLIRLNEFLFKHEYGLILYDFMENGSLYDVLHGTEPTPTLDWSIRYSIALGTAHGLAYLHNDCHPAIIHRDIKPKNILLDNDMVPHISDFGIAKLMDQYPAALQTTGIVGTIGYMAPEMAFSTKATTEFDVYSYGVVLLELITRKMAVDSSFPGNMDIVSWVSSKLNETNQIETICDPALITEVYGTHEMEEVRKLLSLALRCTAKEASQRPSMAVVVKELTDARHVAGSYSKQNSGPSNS
Source text: as §1

AtPEPR1 = target: T1, AtPEPR1 (Arabidopsis thaliana, UniProt Q9SSL9); experiment: Medium alkalinization of transgenic tobacco cells expressing AtPEPR1; type: cell-based
T1 construct: Tobacco cells were transformed with a CaMV-35S-AtPEPR1 gene; expressed in transfected cells; host or cells: tobacco suspension-cultured cells (Agrobacterium-mediated, CaMV 35S promoter)
T1 sequence (Q9SSL9 29-1123): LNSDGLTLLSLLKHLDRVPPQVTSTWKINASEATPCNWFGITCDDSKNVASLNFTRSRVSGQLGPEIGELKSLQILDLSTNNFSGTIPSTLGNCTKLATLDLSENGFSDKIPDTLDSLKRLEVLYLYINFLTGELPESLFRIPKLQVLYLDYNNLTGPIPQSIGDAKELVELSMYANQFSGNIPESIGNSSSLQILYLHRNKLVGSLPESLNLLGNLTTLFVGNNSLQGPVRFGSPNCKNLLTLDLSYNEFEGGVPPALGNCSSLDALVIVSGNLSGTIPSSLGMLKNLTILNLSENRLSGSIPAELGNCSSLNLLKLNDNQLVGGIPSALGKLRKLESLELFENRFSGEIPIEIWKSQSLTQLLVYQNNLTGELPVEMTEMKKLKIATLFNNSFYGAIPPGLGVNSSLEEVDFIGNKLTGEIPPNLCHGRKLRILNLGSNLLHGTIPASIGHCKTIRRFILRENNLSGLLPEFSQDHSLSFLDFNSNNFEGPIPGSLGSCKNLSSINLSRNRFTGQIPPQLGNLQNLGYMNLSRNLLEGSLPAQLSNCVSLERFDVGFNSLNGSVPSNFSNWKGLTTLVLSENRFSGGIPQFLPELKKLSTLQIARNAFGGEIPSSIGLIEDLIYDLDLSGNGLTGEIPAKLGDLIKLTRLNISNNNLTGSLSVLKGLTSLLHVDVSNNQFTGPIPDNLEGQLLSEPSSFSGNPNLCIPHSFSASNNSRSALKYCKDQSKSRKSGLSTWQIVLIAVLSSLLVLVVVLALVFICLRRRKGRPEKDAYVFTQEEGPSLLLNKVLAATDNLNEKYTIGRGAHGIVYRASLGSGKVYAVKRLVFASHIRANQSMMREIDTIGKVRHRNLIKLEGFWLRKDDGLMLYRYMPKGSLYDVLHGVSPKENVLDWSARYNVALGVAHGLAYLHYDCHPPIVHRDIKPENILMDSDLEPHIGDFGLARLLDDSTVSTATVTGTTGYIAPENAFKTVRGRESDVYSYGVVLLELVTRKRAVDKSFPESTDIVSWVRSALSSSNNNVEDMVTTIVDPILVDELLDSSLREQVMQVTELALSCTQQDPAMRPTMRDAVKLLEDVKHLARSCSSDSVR
Source text: Tobacco cells were transformed with a CaMV-35S-AtPEPR1 gene to determine whether the foreign receptor protein was targeted to the cell surface, where, in response to AtPep1, it would activate intracellular signaling to effect the alkalinization of the medium of the transgenic tobacco cells. Expression of the AtPEPR1 gene was confirmed by RT-PCR analysis of RNA from three independently transformed tobacco cell lines. […] AtPep2-7 was also supplied to the transgenic tobacco cells expressing AtPEPR1.
(§2) To clarify whether AtPEPR2 binds to AtPep1, the AtPEPR2 coding region was fused to the CaMV 35S promoter and introduced into tobacco suspension-cultured cells by Agrobacterium. Tobacco cells expressing AtPEPR1 and GUS genes were also created as positive and negative controls, respectively. […] These transgenic lines were analyzed for alkalinizing activity as previously described (Pearce et al., Proc. Natl. Acad. Sci. USA 98, 12843-12847, 2001).
(§3) The response to all AtPep peptides in transgenic tobacco cells expressing either AtPEPR1 or AtPEPR2 was analyzed by the medium alkalinization assay.

AtPEPR2 = target: T2, AtPEPR2 (Arabidopsis thaliana, UniProt Q9FZ59); experiment: Medium alkalinization of transgenic tobacco cells expressing AtPEPR2; type: cell-based
T2 construct: the AtPEPR2 coding region was fused to the CaMV 35S promoter and introduced into tobacco suspension-cultured cells; expressed in transfected cells; host or cells: tobacco suspension-cultured cells, transformed by Agrobacterium, kanamycin-selected
T2 sequence (Q9FZ59 27-1088): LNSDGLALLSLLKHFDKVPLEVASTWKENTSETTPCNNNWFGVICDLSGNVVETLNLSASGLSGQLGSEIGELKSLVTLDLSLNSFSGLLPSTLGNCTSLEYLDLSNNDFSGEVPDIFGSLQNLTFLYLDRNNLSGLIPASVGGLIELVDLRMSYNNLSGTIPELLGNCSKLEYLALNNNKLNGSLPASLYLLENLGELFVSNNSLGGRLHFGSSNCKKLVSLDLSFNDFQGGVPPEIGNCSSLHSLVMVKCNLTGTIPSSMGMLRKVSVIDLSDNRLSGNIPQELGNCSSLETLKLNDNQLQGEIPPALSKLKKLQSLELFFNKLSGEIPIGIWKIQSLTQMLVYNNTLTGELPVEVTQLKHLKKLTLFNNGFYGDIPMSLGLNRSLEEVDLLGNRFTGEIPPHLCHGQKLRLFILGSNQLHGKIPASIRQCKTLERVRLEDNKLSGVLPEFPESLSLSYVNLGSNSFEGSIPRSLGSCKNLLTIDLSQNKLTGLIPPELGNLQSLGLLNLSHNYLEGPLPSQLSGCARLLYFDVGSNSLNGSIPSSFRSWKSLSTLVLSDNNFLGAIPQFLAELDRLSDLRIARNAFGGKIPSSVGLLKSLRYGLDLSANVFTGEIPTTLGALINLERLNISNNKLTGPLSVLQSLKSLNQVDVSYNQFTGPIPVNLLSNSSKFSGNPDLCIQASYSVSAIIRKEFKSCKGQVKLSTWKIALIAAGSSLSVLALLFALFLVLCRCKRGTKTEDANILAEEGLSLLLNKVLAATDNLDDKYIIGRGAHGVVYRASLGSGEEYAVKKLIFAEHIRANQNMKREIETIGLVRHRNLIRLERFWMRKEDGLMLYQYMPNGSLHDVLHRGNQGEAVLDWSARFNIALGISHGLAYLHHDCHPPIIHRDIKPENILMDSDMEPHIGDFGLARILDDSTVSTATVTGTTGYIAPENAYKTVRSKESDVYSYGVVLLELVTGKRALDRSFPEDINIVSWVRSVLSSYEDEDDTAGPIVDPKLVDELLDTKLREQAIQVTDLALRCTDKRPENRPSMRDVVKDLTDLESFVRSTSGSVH
Procedure: as §2, §3

O=P(O)(O)CCCl [ethephon]
expression of the AtproPep1 gene in intact plants [1]: induced a strong expression

CC/C=C\CC1C(=O)CCC1CC(=O)OC (centres unmarked) [MeJA, methyl jasmonate]
expression of AtproPep1 paralogs after spraying [1]: expressed relatively strongly
expression of the AtproPep1 gene in intact plants [1]: induced a strong expression
induction of AtPEPR1 and AtPEPR2 transcripts [2]: induced
increase of GmPROPEP1 transcripts ([3]; 1 hour after supplying): 4 fold
increase of GmPROPEP2 transcripts ([3]; 2 hours after supplying): 5 fold

SLAGANVLVRDAPPETGGGPHHN (SLAGANVLVRDAPPETGGGPHHN) [OsPep3c]
medium alkalinization activity (OsPEPR1): did not show any activity
medium alkalinization activity (OsPEPR2): weak activity
medium pH increase (OsPEPR2; peptide at 250 nM): 0.5 pH unit

SLNVMRKGIRKQPVSSGKRGGVN [AtPep2, SLNVMRKGIRKQPVSSGKRGGVN]
EC50 (AtPEPR1): ~0.25 nM
EC50 (AtPEPR2): ~0.25 nM

COC(=O)c1ccccc1O [MeSA, methyl salicylate, reference compound]
expression of AtproPep1 paralogs after spraying [1]: strongly induced only two of the genes

EIKARGKNKTKPTPSSGKGGKHN [AtPep3, DNKAKSKKRDKEKPSSGRPGQTN]
maximal change (AtPEPR1; AtPEPR1 expressing tobacco cells): 1.2 pH units
induction of AtPEPR1 and AtPEPR2 transcripts [2]: strong inducer

From US8686224B2, “Plant defense signal peptides” (priority 2005, dated 2014)
